# Structures can show the parent of a compound that is named as a salt. Where two headings read alike, the source gives them in different places.
# What was measured:
# [1] = tested on: G. lamblia WBC6 trophozoites; experiment: G. lamblia trophozoite proliferation assay (resazurin); type: cell-based, Giardia lamblia; conditions: for EC50: G. lamblia WBC6 trophozoites, 72 h anaerobic culture, read-out: Giardia cells EC50; for Effect on Giardia trophozoite proliferation: 50 μM inhibitor, 72 h culture, Fig 3B
# Protocol: G. lamblia WBC6 (ATCC catalogue number 50803) trophozoites were grown under microaerophilic conditions in 11 ml culture tubes (Nunc, cat. 156758) containing TYI-S- 33 medium supplemented with 10% bovine serum and bovine bile according to standard protocols. Parasites were harvested by chilling the tubes on ice for 30 minutes to detach adherent cells and collected by centrifugation (900 x g, 10 minutes, 4°C). Encystation was induced using the two-step method as described previously by cultivating the trophozoites in bile-free medium for 44 hours and thereafter in medium (pH 7.85) containing porcine bile.
# Test compounds were dissolved in DMSO and serially diluted in Giardia culture medium. G. lamblia WBC6 trophozoites were grown until adherent cells reached a confluency close to 100%. Cells were then chilled on ice for 20 min and adherent parasites were detached from the culture tube. Cultures were diluted to 5x10^3 cells/ml in growth medium (room temperature) and 100 μl aliquots were immediately added to wells of 96-well plates preloaded with the same volume of test compound dilutions. DMSO (solvent) controls were always included. Plates were incubated for 72 h at 37°C in a humid chamber with an anaerobic atmosphere. Adherent cells were then washed twice with 200 μl PBS before adding 200 μl of PBS containing […] resazurin and 1% glucose. After incubation for 4 h at 37°C, plates were read on a fluorescence plate reader (Wallac 1420 VICTOR^2, PerkinElmer) with excitation and emission wavelengths of 544 nm and 590 nm, respectively. Data were analyzed with the GraphPad Prism software package using a sigmoidal dose-response model for regression. All assays were done in quadruplicate and at least three independent experiments were performed.
# [2] = target: recombinant GlPDE(aa588-1371) (Giardia intestinalis, UniProt A0A644EZ75); experiment: biochemical; type: biochemical; conditions: for Activity against recombinant GlPDE in profiling assay: inhibitor at 100 μM, Fig 3A
# Source text: The DNA sequence comprising the catalytic domain (residues Gly-983 –Glu-1371) was amplified by PCR using genomic DNA of G. lamblia WBC6 and the primer pair GlPDE1cat-for (5'-[…]-3') and GlPDE1cat-rev (5'-[…]-3'). The PCR product was then cloned into the TA vector pCRII-TOPO (Invitrogen) yielding plasmid pCR-GlPDE1cat. To get a plasmid containing the sequence coding for the full length protein lacking the N-terminal transmembrane helices (Met-588 –Glu-1371) of GlPDE, a further PCR product was produced using the primer pair GlPDE1-Mfor (5'-[…]-3') and GlPDE1-LMrev (5'-[…]-3') and was cloned via NdeI (bold) and BsrGI into pCR-GlPDE1cat resulting in plasmid pCR-GlPDE1M. The inserts of both plasmid constructs were verified by sequencing and subcloned into two variants of the yeast expression vector pLT1 [42] using the restriction enzymes SalI (italic)/EcoRV or NdeI (bold)/EcoRV. The EcoRV cloning site originated from the multiple cloning site of the pCRII-TOPO vector. One pLT1 variant directs the expression of the Giardia protein alone, whereas the other adds an N-terminal hemagglutinin (HA) tag to allow detection of the recombinant protein. Transformation of the constructs into the PDE-deficient S. cerevisiae strain PP5 (MATa leu2-3 leu2- 112 ura3-52 his3-532 his4 cam pde1::URA3 pde2::HIS3) was carried out as described previously.
# Yeast cell pellets were created exactly as described previously. Briefly, yeast was grown at 30°C in SC-leu medium to end log phase and thereafter again for 3.5 h in YPD to maximize protein expression. Washed cells were frozen in liquid nitrogen and stored at -70°C. Frozen cell pellets were thawed on ice and resuspended in an equal volume of ice-cold extraction buffer (50 mM HEPES, pH 7.5, 100 mM NaCl, 1x Complete protease inhibitor cocktail without EDTA (Roche Applied Science)). Cell lysates were produced by three passages through a high pressure homogenizer (French press at 20’000 psi, 4°C). Unbroken cells and cell debris were removed by centrifugation for 20 min at 16’000 RCF at 4°C. 25% glycerol was added to the cleared supernatant. Aliquots were snap-frozen in liquid nitrogen and stored at -70°C for subsequent PDE activity assays.
# PDE activity was determined by a modification of the two-step procedure of Thompson and Appleman as described previously. In all reactions no more than 20% of the substrate was hydrolyzed. […] Inhibitors were dissolved and diluted in dimethyl sulfoxide (DMSO), with 1% final DMSO concentration in the reaction mixes. Control reactions with DMSO alone were always included. Data were analyzed using the GraphPad Prism software package (GraphPad, San Diego).
# TbrPDEB1 and TbrPDEB2 = tested on: TbrPDEB1 and TbrPDEB2; set-up: method as in PMID 22291195, PMID 22963052; conditions: cited from earlier work
SMILES,IC50 ([2]; read-out: Giardia PDE IC50),EC50 ([1]; Giardia duodenalis),IC50 [2],also measured
"CCCCCC[C@@H]([C@@H](C)O)n1cnc2c(N)ncnc21 (racemic) [EHNA, erythro-9-(2-hydroxy-3-nonyl)adenine]",> 100 µM,,,EC50 [1]: > 50 µM
"COCc1nc2c([nH]1)c(=O)n(C)c(=O)n2CC(C)C [8'-MM-IBMX, 8-methoxymethyl-IBMX]",> 100 µM,,,EC50 [1]: > 50 µM
COc1ccc(Cc2nn3c([C@@H](CCCc4ccccc4)[C@@H](C)O)nc(C)c3c(=O)[nH]2)cc1OC [BAY 60–7550],,,,EC50 [1]: ~50 µM
Cc1ccc([N+](=O)[O-])cc1S(=O)(=O)N(C)C [BRL 50481],> 100 µM,,,
"CN(C(=O)CCCOc1ccc2[nH]c(=O)ccc2c1)C1CCCCC1 [Cilostamide, cilostamide]",> 100 µM,> 50 µM,,
"OCCN(CCO)c1nc(N2CCCCC2)c2nc(N(CCO)CCO)nc(N3CCCCC3)c2n1 [Dipyridamole, dipyridamole]",,> 50 µM,26.3 µM,Activity against recombinant GlPDE in profiling assay [2]: showed promising activity against GlPDE
"CCOC(=O)c1cnc2c(cnn2CC)c1NN=C(C)C [Etazolate, etatolate]",~100 µM,> 50 µM,,
"CC(C)Cn1c(=O)n(C)c(=O)c2[nH]cnc21 [IBMX, isobutyl-methyl-xanthine]",> 100 µM,> 50 µM,,
"Cc1[nH]c(=O)c(C#N)cc1-c1ccncc1 [Milrinone, milrinone]",,> 50 µM,> 100 µM,
"COc1ccc(Cc2nccc3cc(OC)c(OC)cc23)cc1OC [Papaverine, papaverine]",,> 50 µM,> 100 µM,
"CC(=O)CCCCn1c(=O)c2c(ncn2C)n(C)c1=O [Pentoxifylline, pentoxifylline]",,> 50 µM,,
"COc1ccc(C(=O)Nc2c(Cl)cncc2Cl)cc1OC1CCCC1 [Piclamilast, piclamilast]",,12 µM,11.3 µM,Effect on Giardia trophozoite proliferation [1]: also inhibited Giardia trophozoite proliferation; Activity against recombinant GlPDE in profiling assay [2]: showed promising activity against GlPDE
CCCCOc1cc(CC2CNC(=O)N2)ccc1OC (stereo not drawn) [Ro20-1724],> 100 µM,,,EC50 [1]: > 50 µM
"O=C(Nc1c(Cl)cncc1Cl)c1ccc(OC(F)F)c(OCC2CC2)c1 [Roflumilast, roflumilast]",,7.4 µM,6 µM,Effect on Giardia trophozoite proliferation [1]: also inhibited Giardia trophozoite proliferation; Activity against recombinant GlPDE in profiling assay [2]: showed promising activity against GlPDE
"CCCc1nn(C)c2c(=O)[nH]c(-c3cc(S(=O)(=O)N4CCN(C)CC4)ccc3OCC)nc12 [Sildenafil, sildenafil citrate]",,> 50 µM,> 100 µM,
"COc1cc2c(cc1OC)-c1c/c(=N\c3c(C)cc(C)cc3C)n(C)c(=O)n1CC2 [Trequinsin, trequinsin]",,> 50 µM,> 100 µM,
"CCOC(=O)C1=C[C@]2(CC)CCCN3CCc4c(n1c1ccccc41)[C@@H]32 [Vinpocetine, vinpocetine]",,16.3 µM,> 100 µM,
"COc1cc(-c2ccc(=O)[nH]n2)ccc1OC(F)F [Zardaverine, zardaverine]",,> 50 µM,> 100 µM,
Nc1nc2c(ncn2[C@@H]2O[C@@H]3COP(=O)(O)O[C@H]3[C@H]2O)c(=O)[nH]1 [cGMP],,,,Acceptance as substrate by GlPDE ([2]; recombinant GlPDE(aa588-1371)): does not accept cGMP as a substrate

# Continued, in another order:
IC50 ([2]; read-out: Giardia PDE IC50),SMILES,EC50 ([1]; Giardia duodenalis),IC50 [2],also measured
> 100 µM,C[C@H](Cc1nc2c(cnn2-c2ccccc2Cl)c(=O)[nH]1)C(F)(F)F [BAY 73–6691],,,EC50 [1]: > 50 µM
~100 µM,COc1cc2ncnc(N3CC[C@@H](Oc4cnc5ccccc5n4)C3)c2cc1OC [NEU28],,,EC50 [1]: 30.6 µM
0.8 µM,COc1ccc(C2=NN(C3CCCCCC3)C(=O)[C@@H]3CC=CC[C@H]23)cc1OCCCCOc1ccc(-c2nn[nH]n2)cc1 [NPD-001],,,Potency against trypanosomal PDEs (TbrPDEB1 and TbrPDEB2): potencies in the nanomolar range; Effect on Giardia trophozoite proliferation [1]: also inhibited Giardia trophozoite proliferation; EC50 [1]: 6.9 µM; Activity against recombinant GlPDE in profiling assay [2]: showed promising activity against GlPDE
> 100 µM,"COc1ccc(C2CNC(=O)C2)cc1OC1CCCC1 (stereo not drawn) [Rolipram, rolipram]",> 50 µM,,
> 100 µM,"CN1CC(=O)N2[C@H](c3ccc4c(c3)OCO4)c3[nH]c4ccccc4c3C[C@@H]2C1=O [Tadalafil, tadalafil]",> 50 µM,,
> 100 µM,"CCCOc1ccccc1-c1nc2nn[nH]c2c(=O)[nH]1 [Zaprinast, zaprinast]",> 50 µM,,
